ChEMBL document CHEMBL3351854, “A comprehensive review on synthetic approach for antimalarial agents” (Eur J Med Chem, 2014)
Blank lines part the entries; values can stand above or below the compound they belong to.

Tests used:
[1] = test system: Plasmodium yoelii nigeriensis; test: Antimalarial activity against multidrug-resistant Plasmodium yoelii nigeriensis infected mouse assessed as protection at 12 mg/kg for 4 days; type: functional
[2] = test system: Plasmodium yoelii nigeriensis; test: Antimalarial activity against multidrug-resistant Plasmodium yoelii nigeriensis infected mouse assessed as protection at 24 mg/kg for 4 days; type: functional
[3] = test system: Plasmodium falciparum; test: Antimalarial activity against Plasmodium falciparum by Heme-HRP assay; type: functional, organism-based
[4] = test system: Plasmodium falciparum; test: Antimalarial activity against Plasmodium falciparum by culture assay; type: functional, organism-based
[5] = test system: Plasmodium falciparum; test: Antimalarial activity Plasmodium falciparum NF54; type: functional, organism-based

SMILES: C[C@@H]1[C@H]2CC[C@@H](C)[C@@H]3CC[C@]4(C)OO[C@@]23[C@H](C[C@H]1OC(=O)C1c2ccccc2-c2ccccc21)O4
Activity [1]: 80% | Activity [2]: 100%

IC50 [3]: 60000 nM | IC50 [4]: 48 nM
SMILES: Fc1ccc(CNCCOCCOCCNc2ccnc3cc(Cl)ccc23)c(F)c1

SMILES: CCOC(=O)CC1CCC2(OCCCC2CC(=O)OCC)OO1 (stereo not given)
IC50 [5]: 160 nM
